Assay results: PubChem BioAssay AID1963980 (Molecular Pharmacology Branch, DTP, NCI, 2024)

Test system: 475296-252-R-J1-PDC spheroid viability
Assay: Anticancer human tumor 475296-252-R-J1-PDC patient-derived rectal carcinoma cell line growth inhibition [PI3K]
Settings: spheroids with HUVEC and MSC; for IC50: curve of first compound; for viability, T/C: stronger effect = lower value
In short: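 Multi-cell spheroids combine tumor cells with HUVEC and human MSCs, treated with targeted agents alone or with inavolisib, alpelisib, duvelisib or copanlisib. Concentrations fall in half-log steps from at or near clinical Cmax, or from 10 microM where Cmax is unknown; viability read-out.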

[1] = second compound 0.00316 µM, first compound 0.0316 µM
[2] = second compound 0.00316 µM, first compound 0.1 µM
[3] = second compound 0.00316 µM, first compound 0.316 µM
[4] = second compound 0.00316 µM, first compound 1 µM
[5] = second compound 0.00316 µM, first compound 3.16 µM
[6] = second compound 0.00316 µM, first compound 10 µM
[7] = second compound 0.01 µM, first compound 0.0316 µM
[8] = second compound 0.01 µM, first compound 0.1 µM
[9] = second compound 0.01 µM, first compound 0.316 µM
[10] = second compound 0.01 µM, first compound 1 µM
[11] = second compound 0.01 µM, first compound 3.16 µM
[12] = second compound 0.01 µM, first compound 10 µM
[13] = second compound 0.0316 µM, first compound 0.0316 µM
[14] = second compound 0.0316 µM, first compound 0.1 µM
[15] = second compound 0.0316 µM, first compound 0.316 µM
[16] = second compound 0.0316 µM, first compound 1 µM
[17] = second compound 0.0316 µM, first compound 3.16 µM
[18] = second compound 0.0316 µM, first compound 10 µM
[19] = second compound 0.1 µM, first compound 0.0316 µM
[20] = second compound 0.1 µM, first compound 0.1 µM
[21] = second compound 0.1 µM, first compound 0.316 µM
[22] = second compound 0.1 µM, first compound 1 µM
[23] = second compound 0.1 µM, first compound 3.16 µM
[24] = second compound 0.1 µM, first compound 10 µM
[25] = second compound 0.316 µM, first compound 0.0316 µM
[26] = second compound 0.316 µM, first compound 0.1 µM
[27] = second compound 0.316 µM, first compound 0.316 µM
[28] = second compound 0.316 µM, first compound 1 µM
[29] = second compound 0.316 µM, first compound 3.16 µM
[30] = second compound 0.316 µM, first compound 10 µM
[31] = second compound 1 µM, first compound 0.0316 µM
[32] = second compound 1 µM, first compound 0.1 µM
[33] = second compound 1 µM, first compound 0.316 µM
[34] = second compound 1 µM, first compound 1 µM
[35] = second compound 1 µM, first compound 3.16 µM
[36] = second compound 1 µM, first compound 10 µM
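Also: spheroids exposed to agents for seven days before readout.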

C[C@@H](NC(=O)c1ncnc(N)c1Cl)c1ncc(C(=O)Nc2cc(C(F)(F)F)c(Cl)cn2)s1 + CC(Nc1ccc2c(c1)OCCn1cc(N3C(=O)OCC3C(F)F)nc1-2)C(N)=O
IC50 (second compound 0.00316 µM): > 10 µM | IC50 (second compound 0.01 µM): > 10 µM | IC50 (second compound 0.0316 µM): > 10 µM | IC50 (second compound 0.1 µM): > 10 µM | IC50 (second compound 0.316 µM): > 10 µM | IC50 (second compound 1 µM): > 10 µM | viability, T/C [1]: 98.9% | viability, T/C [2]: 84% | viability, T/C [3]: 99.5% | viability, T/C [4]: 108% | viability, T/C [5]: 93.8% | viability, T/C [6]: 90% | viability, T/C [7]: 95% | viability, T/C [8]: 76% | viability, T/C [9]: 103% | viability, T/C [10]: 103% | viability, T/C [11]: 108% | viability, T/C [12]: 89% | viability, T/C [13]: 80.3% | viability, T/C [14]: 102% | viability, T/C [15]: 100% | viability, T/C [16]: 116% | viability, T/C [17]: 96.7% | viability, T/C [18]: 79.3% | viability, T/C [19]: 90.3% | viability, T/C [20]: 93.1% | viability, T/C [21]: 102% | viability, T/C [22]: 93.8% | viability, T/C [23]: 103% | viability, T/C [24]: 69% | viability, T/C [25]: 87.7% | viability, T/C [26]: 85.9% | viability, T/C [27]: 91.7% | viability, T/C [28]: 93.6% | viability, T/C [29]: 84.5% | viability, T/C [30]: 76.6% | viability, T/C [31]: 77.7% | viability, T/C [32]: 84.6% | viability, T/C [33]: 95.4% | viability, T/C [34]: 93% | viability, T/C [35]: 83% | viability, T/C [36]: 63.6%

CNC(=O)c1ccc(N2C(=S)N(c3ccc(C#N)c(C(F)(F)F)c3)C(=O)C2(C)C)cc1F + CC(Nc1ncnc2nc[nH]c12)c1cc2cccc(Cl)c2c(=O)n1-c1ccccc1
IC50 (second compound 0.0316 µM): > 10 µM | IC50 (second compound 0.1 µM): > 10 µM | IC50 (second compound 0.316 µM): > 10 µM | IC50 (second compound 1 µM): > 10 µM | IC50 (second compound 3.16 µM): > 10 µM | IC50 (second compound 10 µM): > 10 µM | viability, T/C [13]: 90.9% | viability, T/C [14]: 92.1% | viability, T/C [15]: 107% | viability, T/C [16]: 92.6% | viability, T/C [17]: 101% | viability, T/C [18]: 85.7% | viability, T/C [19]: 97.6% | viability, T/C [20]: 99.6% | viability, T/C [21]: 93.4% | viability, T/C [22]: 109% | viability, T/C [23]: 109% | viability, T/C [24]: 106% | viability, T/C [25]: 94.9% | viability, T/C [26]: 104% | viability, T/C [27]: 106% | viability, T/C [28]: 98.4% | viability, T/C [29]: 107% | viability, T/C [30]: 96.2% | viability, T/C [31]: 97% | viability, T/C [32]: 92.1% | viability, T/C [33]: 102% | viability, T/C [34]: 92.4% | viability, T/C [35]: 99.2% | viability, T/C [36]: 99.7% | viability, T/C (second compound 3.16 µM, first compound 0.0316 µM): 89.4% | viability, T/C (second compound 3.16 µM, first compound 0.1 µM): 114% | viability, T/C (second compound 3.16 µM, first compound 0.316 µM): 94% | viability, T/C (second compound 3.16 µM, first compound 1 µM): 103% | viability, T/C (second compound 3.16 µM, first compound 3.16 µM): 101% | viability, T/C (second compound 3.16 µM, first compound 10 µM): 93.2% | viability, T/C (second compound 10 µM, first compound 0.0316 µM): 103% | viability, T/C (second compound 10 µM, first compound 0.1 µM): 92% | viability, T/C (second compound 10 µM, first compound 0.316 µM): 93% | viability, T/C (second compound 10 µM, first compound 1 µM): 96.6% | viability, T/C (second compound 10 µM, first compound 3.16 µM): 107% | viability, T/C (second compound 10 µM, first compound 10 µM): 109%

CC(Cn1ccc(-c2ccc(C#N)c(Cl)c2)n1)NC(=O)c1cc(C(C)O)[nH]n1 (stereo unspecified) + CC(Nc1ccc2c(c1)OCCn1cc(N3C(=O)OCC3C(F)F)nc1-2)C(N)=O
IC50 (second compound 0.00316 µM): > 10 µM | IC50 (second compound 0.01 µM): > 10 µM | IC50 (second compound 0.0316 µM): > 10 µM | IC50 (second compound 0.1 µM): > 10 µM | IC50 (second compound 0.316 µM): > 10 µM | IC50 (second compound 1 µM): > 10 µM | viability, T/C [1]: 110% | viability, T/C [2]: 96.5% | viability, T/C [3]: 93.9% | viability, T/C [4]: 83.8% | viability, T/C [5]: 106% | viability, T/C [6]: 95.2% | viability, T/C [7]: 101% | viability, T/C [8]: 94% | viability, T/C [9]: 98.8% | viability, T/C [10]: 88.4% | viability, T/C [11]: 98.4% | viability, T/C [12]: 103% | viability, T/C [13]: 87.1% | viability, T/C [14]: 102% | viability, T/C [15]: 91.3% | viability, T/C [16]: 90.9% | viability, T/C [17]: 97.5% | viability, T/C [18]: 103% | viability, T/C [19]: 84.6% | viability, T/C [20]: 93.4% | viability, T/C [21]: 101% | viability, T/C [22]: 90.9% | viability, T/C [23]: 95.3% | viability, T/C [24]: 98.4% | viability, T/C [25]: 84% | viability, T/C [26]: 107% | viability, T/C [27]: 91% | viability, T/C [28]: 89.7% | viability, T/C [29]: 90.8% | viability, T/C [30]: 89.5% | viability, T/C [31]: 92% | viability, T/C [32]: 83.1% | viability, T/C [33]: 87.9% | viability, T/C [34]: 93.5% | viability, T/C [35]: 80.6% | viability, T/C [36]: 83.4%
